Here are results for 5 molecules from patent publication US20220023436A1, “COMBINATION OF ANTIBODY-DRUG CONJUGATE WITH PARP INHIBITOR” (DAIICHI SANKYO COMPANY, LIMITED, priority 2018, published 2022).

Where two headings read alike, the source gives them in different places.

The subject of series [1] is Human gastric cancer cell line NCI-N87. It counts as cell-based. The procedure: Human gastric cancer cell line NCI-N87, which was obtained from ATCC (American Type Culture Collection), was used for evaluation. […] Then, NCI-N87 cells suspended at 4×10^4 cells/mL with RPMI1640 Medium containing 10% fetal bovine serum were seeded at 2.5 μL/well, and cultured at 37° C. under 5%CO2 for 6 days.
After culturing, a solution of CellTiter-Glo 2.0 Assay (Promega) diluted with an equivalent volume of Glo Lysis buffer, 1× (Promega) was added at 2 μL/well and subjected to incubation at room temperature for an hour, followed by measurement of luminescence intensity of each well.
Cell growth inhibition rate […] in each condition was calculated using the following formula: […]
T: average luminescence intensity of wells added with each sample
B: average luminescence intensity of wells added with DMSO and medium
C: average luminescence intensity of wells added with DMSO and cells
Furthermore, sigmoid fitting was performed for the concentration-dependent transition of cell growth inhibition rate in each combination condition using Genedata Screener Analyzer Version 14 (Genedata, hereinafter referred to as Screener).
(§1) For combination effects, differences between estimates of additive effects from the Loewe model (Greco W R. et al., Pharmacol. Rev. 1995 June; 47 (2): 331-85) and cell growth inhibition rates (%) subjected to sigmoid fitting were converted to matrices, and Synergy Scores were calculated from the matrix elements using a method described in the reference (Lehar J. et al., Nat Biotechnol. 2009 July; 27 (7):659-66). Besides, Synergy Score=0 indicates an additive effect; Synergy Score>0 indicates a synergistic effect; and Synergy Score<0 indicates an antagonistic effect.

The subject of series [2] is Human breast cancer cell line HCC70. It counts as cell-based. How it is done: as §1
(§2) Human breast cancer cell line HCC70, which was obtained from ATCC, was used for evaluation. […] Then, HCC70 cells suspended at 4×10^4 cells/mL with RPMI1640 Medium containing 10% fetal bovine serum were seeded at 2.5 μL/well, and cultured at 37° C. under 5%CO2 for 6 days. After culturing, a solution of CellTiter-Glo 2.0 Assay diluted with an equivalent volume of Glo Lysis buffer, 1× was added at 2 μL/well and subjected to incubation at room temperature for an hour, followed by measurement of luminescence intensity of each well.

The test system of series [3] is Human pancreatic cancer cell line BxPC-3. It counts as cell-based. The note with it: BxPC-3 cell line. The procedure: as §1
Human pancreatic cancer cell line BxPC-3, which was obtained from ATCC, was used for evaluation. […] Then, BxPC-3 cells suspended at 4×10^4 cells/mL with RPMI1640 Medium containing 10% fetal bovine serum were seeded at 2.5 μL/well, and cultured at 37° C. under 5%CO2 for 6 days. After culturing, a solution of CellTiter-Glo 2.0 Assay (Promega) diluted with an equivalent volume of Glo Lysis buffer, 1× (Promega) was added at 2 μL/well and subjected to incubation at room temperature for an hour, followed by measurement of luminescence intensity of each well.

Series [4] relates to Human breast cancer cell line KPL-4. It counts as cell-based. The note with it: KPL-4 cell line. How it is done:
as §1
as §2, with “KPL-4,” for “HCC70,”, “Dr. Junichi Kurebayashi in Kawasaki Medical School [British Journal of Cancer, (1999) 79 (5/6). 707-717],” for “ATCC,”, “KPL-4” for “HCC70”, “1×10^4” for “4×10^4”

In series [5] the test system is Human lung cancer cell line EBC-1. It counts as cell-based. The note with it: EBC-1 cell line. The procedure:
as §1
as §2, with “lung” for “breast”, “EBC-1,” for “HCC70,”, “Health Science Research Resources Bank (current Japanese Collection of Research Bioresources [JCRB] Cell Bank),” for “ATCC,”, “EBC-1” for “HCC70”, “2×10^4” for “4×10^4”

Series [6] concerns Human breast cancer cell line KPL-4. It counts as in vivo, BALB/c nude mice. The procedure:
The calculation formula is as shown below.
Human breast cancer cell line KPL-4 [British Journal of Cancer, (1999) 79 (5/6).
Incidentally, in the following evaluation examples relating to antitumor studies, unless otherwise described, the studies are performed by the procedure used in this evaluation example.

Series [7] deals with Human ovarian cancer cell line OV-90. Description: Antitumor study (9), subcutaneously transplanted OV-90 cells, CDH6-ADC (1). The following applies: OV-90 model, Day 17 after administration, single administration group; cachexia-like weight loss when tumor size exceeds 1500 mm^3.
Protocol: (§3) Measurement and calculation formula: In all studies, the major axis and minor axis of tumors were measured twice a week with an electronic digital caliper (CD15-CX, Mitutoyo Corp.), and the tumor volume (mm^3) was calculated. The calculation formula is as shown below.
(§4) Tumor growth inhibition (%)=100×(1−T/C) • T: Average tumor volume of mice of test substance administration group • C: Average tumor volume of mice of control group
Talazoparib was dissolved with DMSO, diluted with 0.5% hydroxypropyl methylcellulose, and orally administered in a fluid volume of 10 mL/kg. […] Veliparib was dissolved with a 0.05M CH COON solution and orally administered in a fluid volume of 10 mL/kg.
Human ovarian cancer cell line OV-90, which was purchased from ATCC, was suspended into physiological saline, subcutaneously transplanted at 1×10^7 cells into the right side of female nude mice, and the mice were randomly grouped 14 days after the transplantation (Day 0). […] Single administration groups of each drug, a combined administration group, and a solvent administration group as a control group were set up.
Series [8] has as its system Human breast cancer cell line JIMT-1. The note with it: mouse, in vivo.
Protocol: Measurement and calculation formula: In all studies, the major axis and minor axis of tumors were measured twice a week with an electronic digital caliper (CD15-CX, Mitutoyo Corp.), and the tumor volume (mm^3) was calculated.
(§5) Tumor volume (mm^3)=1/2×Major axis (mm)×[Minor axis (mm)]^2
(§6) The HER2-ADC (1) was diluted with ABS buffer (10 mM acetate buffer [pH 5.5], 5% sorbitol), and intravenously administered in a fluid volume of 10 mL/kg to the tail vein. […] Talazoparib was dissolved with DMSO, diluted with 0.5% hydroxypropyl methylcellulose, and orally administered in a fluid volume of 10 mL/kg.
Human breast cancer cell line JIMT-1, which was purchased from DSMZ (Deutsche Sammlung von Mikroorganismen and Zellkulturen GmbH), was suspended into physiological saline, subcutaneously transplanted at 5×10^6 cells into the right side of female nude mice, and the mice were randomly grouped 10 days after the transplantation (Day 0). The HER2-ADC (1) was intravenously administered to the tail vein at a dose of 10 mg/kg on Day 0. […] Single administration groups of each drug, a combined administration group, and a solvent administration group as a control group were set up.
For series [9], the system named is Human breast cancer cell line HCC1806. The note with it: mouse, in vivo.
Protocol: as §3, §5
Tumor growth inhibition (TGI) was calculated in accordance with the following calculation formula.
as §4
Rucaparib (camsylate) was dissolved with DMSO, diluted with physiological saline, and orally administered in a fluid volume of 10 mL/kg. Talazoparib was dissolved with DMSO, diluted with 10% N,N-Dimethylacetamide/5% Kolliphor HS 15/Dulbecco's Phosphate-Buffered Saline, and orally administered in a fluid volume of 10 mL/kg.
Human breast cancer cell line HCC1806, which was Purchased from ATCC, was suspended into physiological saline, subcutaneously transplanted at 1×10^6 cells into the right side of female nude mice, and the mice were randomly grouped 10 days after the transplantation (Day 0). […] Single administration groups of each drug, a combined administration group, and a solvent administration group as a control group were set up, and tumor growth inhibition (TGI) on Day 21 was calculated.
For series [10], the system named is Human breast cancer cell line MX-1. Description: Antitumor study (6), subcutaneously transplanted MX-1 cells, HER3-ADC (1). The note with it: MX-1 s.c. in nude mice; HER3-ADC (1) 3 mg/kg iv Day 0, 7, 15; olaparib 100 mg/kg po, talazoparib 0.4 mg/kg po once a day, five times a week, two weeks. It counts as in vivo.
Protocol: (§7) Talazoparib was dissolved with dimethyl acetamide, diluted with 5% Kolliphor HS15/Dulbecco's phosphate-buffered saline, and orally administered in a fluid volume of 10 mL/kg.
(§8) In Examples 16 and 17, HER3-ADC (1) was diluted with ABS buffer (10 mM acetate buffer (pH 5.5), 5% sorbitol), and intravenously administered in a fluid volume of 10 mL/kg to the tail vein.
Human breast cancer cell line MX-1 was suspended into 50% Matrigel matrix, subcutaneously transplanted at 5×10^6 cells into the right side of female nude mice, and the mice were randomly grouped 13 days after the transplantation (Day 0). The HER3-ADC (1) was intravenously administered to the tail vein at a dose of 3 mg/kg on Day 0, Day 7 and Day 15. […] Single administration groups of each drug, a combined administration group, and a solvent administration group as a control group were set up.
Series [11] deals with Human ovarian cancer cell line SK-OV-3. It counts as in vivo, BALB/c nude mice. The following applies: SK-OV-3 s.c. in nude mice; HER2-ADC (1) 3 mg/kg iv Day 0 and Day 14; olaparib 60 mg/kg, talazoparib 0.4 mg/kg once a day, five times a week, three weeks.
Protocol: as §3, §5, §6
Human ovarian cancer cell line SK-OV-3 cells, which were purchased from ATCC (American Type Culture Collection), were maintained by nude mouse transplantation, subcutaneously transplanted in the form of a tumor mass of solid tumor (3×3×3 mm) into the right side of female nude mice, and the mice were randomly grouped 19 days after the transplantation (Day 0). HER2-ADC (1) was intravenously administered to the tail vein at a dose of 3 mg/kg on Day 0 and Day 14. […] Single administration groups of each drug, a combined administration group, and a solvent administration group as a control group were set up.
Series [12] deals with Human breast cancer cell line HCC70. Description: Antitumor study (7), subcutaneously transplanted HCC70 cells, HER3-ADC (1). It counts as in vivo. The following applies: HCC70 s.c. in nude mice; HER3-ADC (1) 10 mg/kg iv Day 0, 7, 14; olaparib 100 mg/kg po, talazoparib 0.4 mg/kg po once a day, five times a week, two weeks.
Protocol: as §7, §8
Human breast cancer cell line HCC70 was suspended into physiological saline, subcutaneously transplanted at 1×10^7 cells into the right side of female nude mice, and the mice were randomly grouped 13 days after the transplantation (Day 0). The HER3-ADC (1) was intravenously administered to the tail vein at a dose of 10 mg/kg on Day 0, Day 7 and Day 14. […] Single administration groups of each drug, a combined administration group, and a solvent administration group as a control group were set up.
Series [13] concerns Human breast cancer cell line MX-1. It counts as in vivo. The note with it: MX-1 s.c. in nude mice; HER2-ADC (1) 3 mg/kg iv Day 0; olaparib 100 mg/kg po, talazoparib 0.4 mg/kg po once a day, five times a week, two weeks.
Protocol: as §7
Human breast cancer cell line MX-1, which was purchased from CLS (Cell Lines Service), was suspended into 50% Matrigel matrix, subcutaneously transplanted at 5×10^6 cells into the right side of female nude mice, and the mice were randomly grouped 13 days after the transplantation (Day 0). The HER2-ADC (1) was intravenously administered to the tail vein at a dose of 3 mg/kg on Day 0. […] Single administration groups of each drug, a combined administration group, and a solvent administration group as a control group were set up.
The subject of series [14] is Human gastric cancer cell line NCI-N87. It counts as in vivo, BALB/c nude mice. The following applies: NCI-N87 s.c. in nude mice; HER2-ADC (1) 1 mg/kg iv Day 0; olaparib 50 mg/kg, talazoparib 0.4 mg/kg once a day, five times a week, two weeks.
Protocol: as §3, §5
Talazoparib was dissolved with DMSO, diluted with 0.5% hydroxypropyl methylcellulose, and orally administered in a fluid volume of 10 mL/kg.
Human gastric cancer cell line NCI-N87, which was purchased from ATCC (American Type Culture Collection), was suspended into physiological saline, subcutaneously transplanted at 1×10^7 cells into the right side of female nude mice, and the mice were randomly grouped 6 days after the transplantation (Day 0). […] Single administration groups of each drug, a combined administration group, and a solvent administration group as a control group were set up.
The mark [15] stands for this setting: 6 days, rucaparib (phosphate), >0 synergistic.
The mark [16] stands for this setting: all combinations with olaparib, talazoparib, rucaparib, niraparib.
[17] abbreviates: KPL-4 s.c. in nude mice, last day of study, HER2-ADC (1) 7.5 mg/kg iv Day 0, olaparib 50 mg/kg ip, niraparib 50 mg/kg po, talazoparib 0.4 mg/kg po, rucaparib (camsylate) 150 mg/kg po, once a day, five times a week, two weeks.

On to `CC[C@@]1(O)C(=O)OCc2c1cc1n(c2=O)Cc2c-1nc1cc(F)c(C)c3c1c2[C@@H](NC(=O)CO)CC3` [Compound (1)], for which the “Synergy Score of combination with Niraparib” value in series [1] (6 days, >0 synergistic) is recorded as 1.23; in [2] (6 days, >0 synergistic) it was 1.61; in [3] (6 days, >0 synergistic) it was 1.85; in series [4] (6 days, >0 synergistic), 3.68; in series [5] (6 days, >0 synergistic), 3.17. For the same molecule, the “Synergy Score of combination with Talazoparib” value in series [1] (6 days, >0 synergistic) is given as 4.58; in series [2] (6 days, >0 synergistic), 4.61; in series [3] (6 days, >0 synergistic), 3.25; in [4] (6 days, >0 synergistic) it was 4.86; in [5] (6 days, >0 synergistic), 5.66. Also, the “Synergy Score of combination with Olaparib” value in series [1] (6 days, >0 synergistic, 0 additive, <0 antagonistic) worked out at 3.21; in series [2] (6 days, >0 synergistic), 1.98; in [3] (6 days, >0 synergistic), 1.56; in series [4] (6 days, >0 synergistic), 3.97; in series [5] (6 days, >0 synergistic) it was 3.39. Further, the “Synergy Score of combination with Rucaparib” value amounted to 1.93 in series [1] (setting [15]); 2.48 in [2] (setting [15]); 2.15 in series [3] (setting [15]); 4.97 in [4] (setting [15]); 4.41 in series [5] (setting [15]). The “combination effect in cell growth inhibition study” value in series [1] (setting [16]), in series [2] (setting [16]), in [3] (setting [16]), in series [4] (setting [16]) and in series [5] (setting [16]) was “synergistic effects” each time.
Turning to `CNCc1ccc(-c2[nH]c3cc(F)cc4c3c2CCNC4=O)cc1` [rucaparib], the “tumor growth inhibition (TGI), single administration” value (shortened to “tumor growth inhibition (TGI)”) in [6] (setting [17]) turned out to be 42%. Further, the “mice euthanized due to weight loss” value in series [7] is 1 case out of 6 cases.
In the case of `Cn1ncnc1[C@H]1c2n[nH]c(=O)c3cc(F)cc(c23)N[C@@H]1c1ccc(F)cc1` [talazoparib], the “TGI, single administration” value was found to be 13% in series [8]; 27% in [9]; 49% in [10]; 12% in [11]; 19% in series [12]; 47% in series [13]. Besides, the “TGI, single administration” value in [14] is reported as -2%. In addition, the “tumor growth inhibition (TGI)” value in series [6] (setting [17]) is listed as 31%.
As to `O=C(c1cc(Cc2n[nH]c(=O)c3ccccc23)ccc1F)N1CCN(C(=O)C2CC2)CC1` [olaparib], the “TGI, single administration” value in [10] amounted to 23%; in series [11], 15%; in series [12], 18%; in [13], 44%; in series [14], 26%. For the same molecule, the “tumor growth inhibition (TGI)” value in series [6] (setting [17]) is listed as 21%.
With `NC(=O)c1cccc2cn(-c3ccc([C@@H]4CCCNC4)cc3)nc12` [niraparib], the “tumor growth inhibition (TGI)” value in series [6] (mouse, in vivo) was determined as 39%. Besides, the “mice euthanized due to weight loss” value in series [7] is 1 case out of 6 cases.
